How the values were obtained:
[1] = system: dephosphorylation of purified rat liver AMPK by protein phosphatase-2Cα (PPM1A); assay: dephosphorylation of rat liver AMPK by PP2Cα, western blotting of pThr-172; assay type: biochemical; settings: 1 mM oligosaccharide
Method: (§1) Figure 7 Effect of Oligosaccharide Number 5, See Figure 6, on Dephosphorylation of AMPK by PP2Cα and on Phosphorylation by CaMKKβ and LKB1 (A) Effect of oligosaccharide on dephosphorylation by PP2Cα. Rat liver AMPK was incubated with PP2Cα in the presence and absence of 1 mM oligosaccharide; at various times, levels of total α subunit and phosphorylation on Thr-172 were assessed by western blotting. (B) Quantification of results as in (A); means ± SEM of two experiments. (C) Effect of oligosaccharide on phosphorylation by CaMKKβ. Rat liver AMPK was dephosphorylated using PP1, okadaic acid was added to inhibit the phosphatase, and the protein was incubated with MgATP and CaMKKβ in the presence and absence of 1 mM oligosaccharide. At various times, levels of total α subunit and of phosphorylation on Thr-172 were assessed by western blotting. (D) Quantification of results as in (C); means ± SEM (n = 2). (E) Time course of effect of oligosaccharide on phosphorylation by LKB1, performed as in (C) but with LKB1 in place of CaMKKβ. (F) Effect of oligosaccharide on phosphorylation of a synthetic peptide substrate of LKB1 (mean ± SD; n = 2). (G) Inhibition of AMPK by bovine liver glycogen, a phosphorylase limit dextrin, and a mock-treated sample. IC50 values were determined as in Figure 2A and curves generated from the best-fit parameters. […]

[2] = system: dephosphorylation of AMPK by protein phosphatase-1; assay: dephosphorylation of AMPK by catalytic subunit of protein phosphatase-1; assay type: biochemical, rat; settings: data not shown
Text: (§2) The inhibitory effects observed to this point represent allosteric inhibition, i.e., direct effects on the activity of the AMPK kinase domain of carbohydrate binding at a different site, i.e., the GBD on the β subunit. It was important to establish whether carbohydrates might also affect phosphorylation and dephosphorylation by upstream kinases and phosphatases. […] To confirm that the latter was not an effect on LKB1, we tested the effect of the oligosaccharide on phosphorylation of a synthetic peptide substrate, i.e., LKBtide ([Lizcano et al., 2004]).

[3] = system: phosphorylation of Thr-172 by CaMKKβ; assay: phosphorylation of Thr-172 of rat liver AMPK by CaMKKβ; assay type: biochemical; settings: 1 mM oligosaccharide
Method: as §1

[4] = system: phosphorylation of Thr-172 by LKB1; assay: phosphorylation of Thr-172 of rat liver AMPK by LKB1; assay type: biochemical; settings: 1 mM oligosaccharide
Method: as §1

LKB1 = target: T1, LKB1 (Homo sapiens, UniProt Q15831); assay: phosphorylation of synthetic peptide substrate LKBtide by LKB1; assay type: biochemical; settings: 1 mM oligosaccharide
T1 sequence (Q15831 1-433): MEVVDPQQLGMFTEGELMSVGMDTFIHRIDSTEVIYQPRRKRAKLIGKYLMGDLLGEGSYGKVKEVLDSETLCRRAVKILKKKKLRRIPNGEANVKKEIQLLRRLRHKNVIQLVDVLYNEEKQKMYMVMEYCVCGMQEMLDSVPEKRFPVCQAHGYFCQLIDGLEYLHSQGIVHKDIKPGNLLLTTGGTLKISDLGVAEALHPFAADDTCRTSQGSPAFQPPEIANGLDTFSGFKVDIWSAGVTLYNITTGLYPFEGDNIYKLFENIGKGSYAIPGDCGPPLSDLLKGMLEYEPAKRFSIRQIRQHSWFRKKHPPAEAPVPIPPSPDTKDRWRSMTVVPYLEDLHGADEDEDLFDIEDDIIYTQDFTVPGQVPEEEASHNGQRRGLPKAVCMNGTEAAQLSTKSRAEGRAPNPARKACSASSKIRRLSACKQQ
T1 sequence (Q7RTN6 1-431 partner): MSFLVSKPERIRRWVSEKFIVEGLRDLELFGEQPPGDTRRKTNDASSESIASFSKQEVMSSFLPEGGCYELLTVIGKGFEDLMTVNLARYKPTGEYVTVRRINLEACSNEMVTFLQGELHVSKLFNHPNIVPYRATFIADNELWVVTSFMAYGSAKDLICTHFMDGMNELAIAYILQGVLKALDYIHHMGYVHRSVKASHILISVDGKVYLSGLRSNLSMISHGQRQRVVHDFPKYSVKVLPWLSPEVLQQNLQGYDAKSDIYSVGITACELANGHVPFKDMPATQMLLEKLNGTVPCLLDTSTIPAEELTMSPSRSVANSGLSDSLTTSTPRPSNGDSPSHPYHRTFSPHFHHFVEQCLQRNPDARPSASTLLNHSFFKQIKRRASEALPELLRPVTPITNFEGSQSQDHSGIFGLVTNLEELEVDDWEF
T1 sequence (Q9Y376 1-341 partner): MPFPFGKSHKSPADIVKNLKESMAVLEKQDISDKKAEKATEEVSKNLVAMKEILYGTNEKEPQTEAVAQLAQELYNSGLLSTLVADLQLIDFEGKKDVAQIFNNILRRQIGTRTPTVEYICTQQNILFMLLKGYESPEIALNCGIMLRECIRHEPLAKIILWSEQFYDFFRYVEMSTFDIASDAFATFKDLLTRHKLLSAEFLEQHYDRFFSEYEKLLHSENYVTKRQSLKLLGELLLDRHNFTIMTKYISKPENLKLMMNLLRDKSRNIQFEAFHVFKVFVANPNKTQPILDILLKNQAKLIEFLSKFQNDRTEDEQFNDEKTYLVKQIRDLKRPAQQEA
Text: as §2
Figure 7 Effect of Oligosaccharide Number 5, See Figure 6, on Dephosphorylation of AMPK by PP2Cα and on Phosphorylation by CaMKKβ and LKB1 (A) Effect of oligosaccharide on dephosphorylation by PP2Cα. Rat liver AMPK was incubated with PP2Cα in the presence and absence of 1 mM oligosaccharide; at various times, levels of total α subunit and phosphorylation on Thr-172 were assessed by western blotting. (B) Quantification of results as in (A); means ± SEM of two experiments. (C) Effect of oligosaccharide on phosphorylation by CaMKKβ. […] At various times, levels of total α subunit and of phosphorylation on Thr-172 were assessed by western blotting. (D) Quantification of results as in (C); means ± SEM (n = 2). […] IC50 values were determined as in Figure 2A and curves generated from the best-fit parameters. […]

effect on dephosphorylation by protein phosphatase-1 [2]: negative results
inhibition of LKBtide phosphorylation (LKB1): no significant inhibition
SMILES: CO[C@H]1O[C@H](CO[C@H]2O[C@H](CO)[C@@H](O[C@H]3O[C@H](CO)[C@@H](O)[C@H](O)[C@H]3O)[C@H](O)[C@H]2O)[C@@H](O)[C@H](O)[C@H]1O [Oligosaccharide 5, Glcα1→4Glcα1→6Glcα-OMe]
effect on dephosphorylation by PP2Cα [1]: no significant effect
inhibition of phosphorylation of Thr-172 by CaMKKβ [3]: marked inhibition
extent of inhibition of phosphorylation of the rat liver αβγ complex by LKB1 ([4]; Figure 7E): essentially complete
inhibition of phosphorylation of Thr-172 by LKB1 ([4]; time course): marked inhibition
